Data as given in the OligoGym collection.
After the bases stand the sugars from the 5' end (letter, count) and the backbone: PS all phosphorothioate, else s phosphorothioate and o phosphodiester by linkage. Methylation of C is not given here. l = locked nucleic acid (LNA); d = 2'-deoxy (DNA)

Target: SNHG14
Settings: ASO
[1] = Mouse Primary Neuronal Cell, 0.005 µM

Sequence	target mRNA inhibition (Human Neuronal Cell, 7.5 µM) [%]	target mRNA inhibition (Human Neuronal Cell, 0.2 µM) [%]	target mRNA inhibition (Human Neuronal Cell, 1 µM) [%]	further results
TTATAGCCATTCTATCT (sugars llddlddddddldddll, PS)	45	–	–	–
GATCATTCTCAACAATT (sugars l2 d1 l2 d7 l5, PS)	25	–	–	–
ACATCTCATACTTGCT (sugars l2 d11 l3, PS)	–	–	–	target mRNA inhibition [1]: 96.3%
TGTTTATACCCTTTCCAA (sugars lddlddddddddlddlll, PS)	61	–	–	–
TTTCTGACTCCCTATCC (sugars l2 d13 l2, PS)	–	25	14	–
TTTTATACCTTTCTTTAACC (sugars llldddddddddddldldll, PS)	65	–	–	–
CACCTGATAACAGACC (sugars l3 d10 l3, PS)	–	-22	7	target mRNA inhibition (Human Neuronal Cell, 5 µM): 27%
TTCTACTATACTTTCCTCT (sugars ldldddddddddlddddll, PS)	59	–	–	–
AATTTTTTTCTTACTATCTT (sugars lddddldddddddldldlll, PS)	50	–	–	–
CCAAACTGTCTTCTAAT (sugars l2 d11 l4, PS)	–	23	26	–
ACCACCTAAGACCTCAA (sugars l2 d11 l4, PS)	–	38	60	–
TACTCTGCAATACACC (sugars l3 d11 l2, PS)	55	–	–	–
ACATTATTATTTAACCT (sugars l3 d11 l3, PS)	–	6	17	–
TTGATTCAATTCCCTTA (sugars l2 d9 l1 d3 l2, PS)	60	–	–	–
ATATTGATTCAATTCCC (sugars l4 d7 l1 d3 l2, PS)	67	–	–	–
GTTTCCATCTACTATTA (sugars l2 d11 l4, PS)	–	60	75	–
GTTCTACTATACTTTCCT (sugars lddldddddddddlddll, PS)	58	–	–	–
AAAATCTCAACTACCATTT (sugars lldldlddddddddlllll, PS)	41	–	–	–
ATTTCTCTATGTCACAT (sugars l3 d11 l3, PS)	–	31	35	–
TGCAAATACCTCTTCA (sugars l4 d10 l2, PS)	–	64	69	–
ATACCTTTCTTTAACCC (sugars l4 d11 l2, PS)	–	60	67	–

Sequence	target mRNA inhibition (Human Neuronal Cell, 7.5 µM) [%]	target mRNA inhibition (Human Neuronal Cell, 0.2 µM) [%]	target mRNA inhibition (Human Neuronal Cell, 1 µM) [%]	further results
TTATAGCCATTCTATCT (sugars ldldlddddddlddlll, PS)	37	–	–	–
CCATTCAATGATCACT (sugars l2 d10 l4, PS)	–	52	45	–
TAATCCTATTCCAACT (sugars l3 d10 l3, PS)	–	16	17	–
TTGATTCAATTCCCTTA (sugars ldldlddddddddldll, PS)	59	–	–	–
TTATAGCCATTCTATCT (sugars lddldddddddldllll, PS)	22	–	–	–
AAAATTATTTATACACCATC (sugars llldldldddddddllldll, PS)	56	–	–	–
CAACATTATTAACCACCTTA (sugars l2 d4 l1 d11 l2, PS)	37	–	–	–
TTACACTTAATTATACTTCC (sugars lddlldldddddddddddll, PS)	68	–	–	–
AATTTTTTTCTTACTATCTT (sugars llllddldddddddldddll, PS)	49	–	–	–
ATCTCATGACCACCTAA (sugars ldldddddddddldlll, PS)	61	–	–	–
ATTTCATTAAGTCACCC (sugars l3 d11 l3, PS)	–	51	53	–
ATCATTCTCAACAATTAAA (sugars l5 d8 l2 d2 l2, PS)	57	–	–	–
CAACATTATTAACCACCTT (sugars l1 d2 l1 d12 l3, PS)	53	–	–	–
TTTTAACCAGAGTGGCAT (sugars l4 d11 l3, PS)	56	–	–	–
AGTTCTACTATACTTTC (sugars l2 d1 l2 d10 l2, PS)	58	–	–	–
CATTATATTTAAACTATCA (sugars l4 d13 l2, PS)	–	8	15	–
TTCAAGAATTCTCTCC (sugars l2 d10 l4, PS)	–	46	50	–
AATTATTTATACACCATCAT (sugars ldlldddddddddddldlll, PS)	62	–	–	–
TACCTACATCTCATACT (sugars l2 d13 l2, PS)	–	-1	0	target mRNA inhibition (Human Neuronal Cell, 5 µM): 11%; target mRNA inhibition [1]: 78.6%
GATCATTCTCAACAATTA (sugars l2 d3 l1 d6 l6, PS)	33	–	–	–
TCTCAGCTTCTTCAAAT (sugars l2 d12 l3, PS)	–	26	23	–

Sequence	target mRNA inhibition (Human Neuronal Cell, 7.5 µM) [%]	target mRNA inhibition (Human Neuronal Cell, 0.2 µM) [%]	target mRNA inhibition (Human Neuronal Cell, 1 µM) [%]	further results
ATCTCATGACCACCTAA (sugars ldlddddddddlddlll, PS)	52	–	–	–
ATCATTCTCAACAATTAA (sugars l1 d1 l4 d6 l6, PS)	4	–	–	–
TGAAACATTCTTCCCAC (sugars l2 d12 l3, PS)	–	11	13	–
ATCATTCTCAACAATTAA (sugars l4 d8 l1 d1 l4, PS)	53	–	–	–
GTTCTACTATACTTTCCT (sugars l1 d4 l1 d9 l3, PS)	57	–	–	–
TTTTTTCTTACTATCTTCAA (sugars llldddlddddddddlddll, PS)	58	–	–	–
TTTTATACCTTTCTTTAACC (sugars ldlddddddddddlldddll, PS)	53	–	–	–
TCACTGTTCTGACTTT (sugars l3 d10 l3, PS)	–	19	18	target mRNA inhibition (Human Neuronal Cell, 5 µM): 28%
CTCCAACATAGATCCT (sugars l3 d10 l3, PS)	–	44	54	–
CTCATCCCTCCAAGAAA (sugars l2 d13 l2, PS)	–	5	-16	target mRNA inhibition (Human Neuronal Cell, 5 µM): -5%; target mRNA inhibition [1]: 88.8%
ACCTTAAGTAACATTT (sugars l4 d10 l2, PS)	–	36	44	–
TTATAGCCATTCTATCT (sugars l1 d1 l1 d10 l4, PS)	55	–	–	–
AGCAACATTATTAACCACC (sugars ldldlddddddddlddlll, PS)	53	–	–	–
CTATGTTAATACTTTC (sugars l4 d10 l2, PS)	–	26	31	–
CATATTGAACCAATTC (sugars l4 d10 l2, PS)	–	51	67	–
CTCATACTTGCTTTAAT (sugars l4 d11 l2, PS)	–	7	13	target mRNA inhibition (Human Neuronal Cell, 5 µM): 26%; target mRNA inhibition [1]: 96.4%
ATTTACACTTAATTATACTT (sugars ldllddlddddddlllldll, PS)	12	–	–	–
TTACCTACATCTCATACTT (sugars l2 d15 l2, PS)	–	-5	-7	target mRNA inhibition (Human Neuronal Cell, 5 µM): 7%; target mRNA inhibition [1]: 79%
ACCAGCTACAGGAACCTC (sugars l3 d12 l3, PS)	–	-35	-33	target mRNA inhibition (Human Neuronal Cell, 5 µM): -60%
ATCTCATGACCACCTAA (sugars l3 d10 l1 d1 l2, PS)	60	–	–	–
